According to ChEMBL document CHEMBL4840355, “Antitumor and toxicity study of mitochondria-targeted triptolide derivatives using triphenylphosphine (TPP+) as a carrier” (Bioorg Med Chem, 2021):
pIC50: −log10 of the molar value. Activity calls are given as the source filed them. The rule behind the calls is not given here.

Experiments:
HepG2 [1] = assay: Cytotoxicity against human HepG2 cells assessed as inhibition of cell proliferation measured after 48 hrs by MTT assay; assay type: functional, cell-based; conditions: HepG2, 48 h
NCI-H1299 [2] = assay: Cytotoxicity against human NCI-H1299 cells assessed as inhibition of cell proliferation measured after 48 hrs by MTT assay; assay type: functional, cell-based; conditions: NCI-H1299, 48 h
PANC-1 [3] = assay: Cytotoxicity against human PANC-1 cells assessed as inhibition of cell proliferation measured after 48 hrs by MTT assay; assay type: functional, cell-based; conditions: PANC-1, 48 h
MCF7 [4] = assay: Cytotoxicity against human MCF7 cells assessed as inhibition of cell proliferation measured after 48 hrs by MTT assay; assay type: functional, cell-based; conditions: MCF7, 48 h
[5] = Cytotoxicity against human HBE cells assessed as inhibition of cell proliferation measured after 48 hrs by MTT assay; assay type: cell-based
NCI-H1975 [6] = assay: Cytotoxicity against human NCI-H1975 cells assessed as inhibition of cell proliferation measured after 48 hrs by MTT assay; assay type: functional, cell-based; conditions: NCI-H1975, 48 h
HeLa [7] = assay: Cytotoxicity against human HeLa cells assessed as inhibition of cell proliferation measured after 48 hrs by MTT assay; assay type: functional, cell-based
[8] = Cytotoxicity against human A549/DDP cells assessed as inhibition of cell proliferation measured after 48 hrs by MTT assay; assay type: functional, cell-based
PC-3 [9] = assay: Cytotoxicity against human PC-3 cells assessed as inhibition of cell proliferation measured after 48 hrs by MTT assay; assay type: functional, cell-based; conditions: PC-3, 48 h
L02 = assay: Cytotoxicity against human HL7702 cells assessed as inhibition of cell proliferation measured after 48 hrs by MTT assay; assay type: cell-based; conditions: L02, 48 h
HepG2 [10] = assay: Potency index, ratio of TP IC50 to test compound IC50 for cytotoxicity against human HepG2 cells; assay type: functional
MCF7 [11] = assay: Potency index, ratio of TP IC50 to test compound IC50 for cytotoxicity against human MCF7 cells; assay type: functional
HeLa [12] = assay: Potency index, ratio of TP IC50 to test compound IC50 for cytotoxicity against human HeLa cells; assay type: functional
NCI-H1299 [13] = assay: Potency index, ratio of TP IC50 to test compound IC50 for cytotoxicity against human NCI-H1299 cells; assay type: functional
PANC-1 [14] = assay: Potency index, ratio of TP IC50 to test compound IC50 for cytotoxicity against human PANC-1 cells; assay type: functional
[15] = Potency index, ratio of TP IC50 to test compound IC50 for cytotoxicity against human A549/DDP cells; assay type: functional
PC-3 [16] = assay: Potency index, ratio of TP IC50 to test compound IC50 for cytotoxicity against human PC-3 cells; assay type: functional
NCI-H1975 [17] = assay: Potency index, ratio of TP IC50 to test compound IC50 for cytotoxicity against human NCI-H1975 cells; assay type: functional
[18] = Toxicity in zebrafish AB assessed as increase in embryo malformation rate at 0.5 to 2 uM measured at 72 hrs postfertilization; parameters: species or system Danio rerio; conditions: in vivo, dose 0.5-2 µM
[19] = Toxicity in zebrafish AB assessed as decrease in body length at 0.25 to 2 uM measured at 72 hrs postfertilization; parameters: species or system Danio rerio; conditions: in vivo, dose 0.25-2 µM
HepG2 [20] = assay: Antitumor activity against human HepG2 cells xenografted in zebra fish AB assessed as tumor growth inhibition at 0.5 to 1 uM measured after 48 hrs by fluorescence microscopic analysis; assay type: functional, cell-based; conditions: dose 0.5-1 µM
[21] = Toxicity in zebrafish AB assessed as mortality at 0.05 to 2 uM measured at 72 hrs postfertilization; parameters: species or system Danio rerio; conditions: in vivo, dose 0.05-2 µM
HepG2 [22] = assay: Antitumor activity against human HepG2 cells xenografted in zebra fish AB assessed as tumor growth inhibition at 1 uM measured after 48 hrs by fluorescence microscopic analysis; assay type: functional, cell-based
[23] = Toxicity in zebrafish AB assessed as pericardial edema at 1 uM; parameters: species or system Danio rerio; conditions: in vivo
[24] = Toxicity in zebrafish AB assessed as decrease in hatching rate at 0.25 to 2 uM measured at 72 hrs postfertilization; parameters: species or system Danio rerio; conditions: in vivo, dose 0.25-2 µM
[25] = Hepatotoxicity in transgenic zebrafish Tg(1-fabp:EGFP) assessed as liver damage by measuring decrease in fluorescence intensity and area at 0.5 uM measured after 96 hrs; assay type: toxicity, tissue-based, Danio rerio; conditions: in vivo
[26] = Toxicity in 12-month old zebrafish assessed as mortality at 1.6 uM; parameters: species or system Danio rerio; conditions: in vivo

SMILES	pIC50 (HepG2 [1])	pIC50 (NCI-H1299 [2])	pIC50 (PANC-1 [3])	pIC50 (MCF7 [4])	pIC50 [5]	pIC50 (NCI-H1975 [6])	pIC50 (HeLa [7])	pIC50 [8]	pIC50 (PC-3 [9])	pIC50 (L02)	also measured
CC(C)[C@]12O[C@H]1[C@@H]1O[C@]13[C@]1(O[C@H]1C[C@H]1C4=C(CC[C@@]13C)C(=O)OC4)[C@@H]2OC(=O)CCCCCCCCCC[P+](c1ccccc1)(c1ccccc1)c1ccccc1	6.45	6.42	6.73	6.72	6.67	6.58	6.21	5.99	6.83	6.38	
CC(C)[C@]12O[C@H]1[C@@H]1O[C@]13[C@]1(O[C@H]1C[C@H]1C4=C(CC[C@@]13C)C(=O)OC4)[C@@H]2OC(=O)CCCCCC[P+](c1ccccc1)(c1ccccc1)c1ccccc1	6.87	6.62	6.62	6.50	6.87	6.84	6.57	< 5.00	6.84	6.50	
CCCCCCC(=O)O[C@@H]1[C@@]2(C(C)C)O[C@H]2[C@@H]2O[C@]23[C@]12O[C@H]2C[C@H]1C2=C(CC[C@@]13C)C(=O)OC2	7.28	6.87	6.77	6.67	6.92	7.09	6.62	< 5.00	6.72	7.38	
CC(C)[C@]12O[C@H]1[C@@H]1O[C@]13[C@]1(O[C@H]1C[C@H]1C4=C(CC[C@@]13C)C(=O)OC4)[C@@H]2OC(=O)CCCCCCBr	7.19	7.05	6.68	7.04	6.94	7.01	6.60	< 5.00	7.38	7.12	
CC(C)[C@]12O[C@H]1[C@@H]1O[C@]13[C@]1(O[C@H]1C[C@H]1C4=C(CC[C@@]13C)C(=O)OC4)[C@@H]2OC(=O)CCCC[P+](c1ccccc1)(c1ccccc1)c1ccccc1.[Br-]	4.62	5.65	4.87	4.73	5.20	5.86	4.64	< 5.00	4.58	4.76	Ratio IC50 (HepG2 [10]): 100; Ratio IC50 (MCF7 [11]): 100; Ratio IC50 (HeLa [12]): 100; Ratio IC50 (NCI-H1299 [13]): 100; Ratio IC50 (PANC-1 [14]): 100; Ratio IC50 [15]: 100; Ratio IC50 (PC-3 [16]): 100; Ratio IC50 (NCI-H1975 [17]): 100
CCCCC(=O)O[C@@H]1[C@@]2(C(C)C)O[C@H]2[C@@H]2O[C@]23[C@]12O[C@H]2C[C@H]1C2=C(CC[C@@]13C)C(=O)OC2	6.31	6.30	6.85	5.77	6.49	6.28	6.09	< 5.00	6.01	6.50	
CC(C)[C@]12O[C@H]1[C@@H]1O[C@]13[C@]1(O[C@H]1C[C@H]1C4=C(CC[C@@]13C)C(=O)OC4)[C@@H]2OC(=O)CCCCCCCBr	6.86	7.05	6.86	6.52	6.88	7.44	6.58	< 5.00	6.79	7.06	
CC(C)[C@]12O[C@H]1[C@@H]1O[C@]13[C@]1(O[C@H]1C[C@H]1C4=C(CC[C@@]13C)C(=O)OC4)[C@@H]2OC(=O)CCCCCCC[P+](c1ccccc1)(c1ccccc1)c1ccccc1	7.22	6.69	6.78	6.51	6.91	6.72	6.48	< 5.00	6.79	6.90	
CC(C)[C@]12O[C@H]1[C@@H]1O[C@]13[C@]1(O[C@H]1C[C@H]1C4=C(CC[C@@]13C)C(=O)OC4)[C@@H]2OC(=O)CCCCBr	6.64	6.63	5.92	6.42	6.58	6.79	6.14	< 5.00	6.72	7.08	
CCCCCCCCCCC(=O)O[C@@H]1[C@@]2(C(C)C)O[C@H]2[C@@H]2O[C@]23[C@]12O[C@H]2C[C@H]1C2=C(CC[C@@]13C)C(=O)OC2	6.53	6.48	6.49	6.33	6.82	7.02	6.33	< 5.00	5.90	6.73	
CC(C)[C@]12O[C@H]1[C@@H]1O[C@]13[C@]1(O[C@H]1C[C@H]1C4=C(CC[C@@]13C)C(=O)OC4)[C@@H]2OC(=O)CCCCCBr	6.83	6.94	6.41	6.44	6.77	6.68	6.41	< 5.00	7.10	7.07	
CC(C)[C@]12O[C@H]1[C@@H]1O[C@]13[C@]1(O[C@H]1C[C@H]1C4=C(CC[C@@]13C)C(=O)OC4)[C@@H]2O [TRIPTOLIDE]	7.48	7.31	7.25	7.66	7.52	7.72	7.37	< 5.00	7.68	7.68	Activity [18]: Toxic; Activity [19]: Toxic; Activity (HepG2 [20]): Active; Activity [21]: Non-Toxic; Activity (HepG2 [22]): Active; Activity [23]: Toxic; Activity [24]: Toxic; Activity [25]: Toxic; mortality at 1.6 µM [26]: 100%
CC(C)[C@]12O[C@H]1[C@@H]1O[C@]13[C@]1(O[C@H]1C[C@H]1C4=C(CC[C@@]13C)C(=O)OC4)[C@@H]2OC(=O)CCCCCCCCCCBr	6.20	6.25	6.44	6.37	6.32	6.42	5.96	< 5.00	6.09	6.64	
COc1cccc2c1C(=O)c1c(O)c3c(c(O)c1C2=O)C[C@@](O)(C(=O)CO)C[C@@H]3O[C@H]1C[C@H](N)[C@H](O)[C@H](C)O1 [DOXORUBICIN]	5.71	5.89	5.51		5.90	5.57	5.68	4.97	6.27	6.45	Activity (HepG2 [22]): Active
CCCCCCCC(=O)O[C@@H]1[C@@]2(C(C)C)O[C@H]2[C@@H]2O[C@]23[C@]12O[C@H]2C[C@H]1C2=C(CC[C@@]13C)C(=O)OC2	6.95	6.71	6.86	6.26	6.85	6.82	6.35	< 5.00	6.77	7.20	
CCCCCC(=O)O[C@@H]1[C@@]2(C(C)C)O[C@H]2[C@@H]2O[C@]23[C@]12O[C@H]2C[C@H]1C2=C(CC[C@@]13C)C(=O)OC2	7.13	6.67	7.07	6.19	7.00	7.09	6.47	< 5.00	6.80	6.82	
